Assay results from article PMC8750630, “Novel Molecular Targets for Hepatocellular Carcinoma” (Cancers, 2021).

What follows are sequences tested on CD8+ T cells (assay: pMHC multimer staining of PBMCs for epitope-specific CD8+ T cells). Settings: HLA-A*02:01 multimers, PBMCs from 4 HCC patients and 3 healthy donors, average.
Type: cell-based, human
Method: pMHC complexes were generated by combining purified disulfide-stabilized HLA A*0201 monomer (100 μg/mL) with 100 μM peptide for 30 min in PBS at room temperature. Then, pMHC complexes were centrifuged for 5 min at 3300× g to sediment any aggregated MHC molecules. For each 100 μL pMHC, 9.02 μL (0.2 mg/mL stock, SA-PE (BioLegend, 405204), SA-APC (BioLegend, 405207), SA-PE/Cy7 (BioLegend, 405206), SA-PE-CF594 (BD, 562284)), or 18.04 μL (0.1 mg/mL stock, SA-BV421 (BioLegend, 405226), SA-BV650 (BioLegend, 405231) streptavidin conjugate was added and incubated for 30 min on ice. D-biotin (Sigma-Aldrich, St.Louis, MO, USA) was added at a final concentration of 25 μM to block any free binding sites and multimers were stored at −20 °C with 5% glycerol and 0.5% BSA. To stain for T-cell reactivity, PBMCs from 4 HCC patients and 3 healthy donors (2–5 × 10^6) were incubated with a pool of pMHC multimers (3 μL/multimer) and dasatinib (50 nM final, LC laboratories, D-3307) for 15 min at 37 °C. Cells were then stained with antibodies CD3-FITC (1:40, BD, 345763) and CD8-BV480 (1:100, BD, 566121) and LIVE/DEAD Fixable Near-IR (1:1000, Invitrogen, Waltham, MA, USA L10119) for 30 min on ice and washed twice in FACS buffer (PBS + 2% FCS). Gating for CD3^+/CD8^+ T cells was performed on live cells, and binding to pMHCs was assessed by measuring specific fluorescence associated with each individual pMHC. Samples were acquired on a flow cytometer (LSRFortessa, BD, Franklin Lakes, NJ, USA).

Sequence	percentage of CD8+ T cells reacting with the peptide [%]
ALLALTSAV	0.88
LLGPQLVLL	0.55
MLAGNAFTA	0.46
MLAGNEFQV	0.32
